Assay results published in patent US9981909B2 (Janssen Pharmaceutica NV, priority 2008, dated 2018).
Where a name gives a salt, the structure may show the parent alone.

Experiments:
human SERT = human SERT (Homo sapiens (Human), UniProt P31645); assay: human SERT binding assay with [3H]-citalopram on HEK-293 membranes; details: read-out: hSERT binding Ki
r5-HT7 receptor = r5-HT7 receptor (Rattus norvegicus (Rat), UniProt P32305); assay: HitHunter cAMP assay, antagonist testing against 100 nM 5-CT; assay type: cell-based; details: antagonist testing, 100 nM 5-CT challenge, HEK-293 r5-HT7; read-out: R5HT7 cAMP pKb (converted)
Method: Receptor binding was performed using membrane fractions prepared from the HEK-293 cell line recombinantly expressing rat 5-HT7 receptors (NCBI accession NM_022938). Compound affinity for the rat 5-HT7 receptor subtype was evaluated by competitive radioligand binding assays using 5-carboxamido[^3H]tryptamine ([^3H]5-CT) (Amersham Biosciences, cat. 90000403) detection. HitHunter™ cAMP assays are in-vitro based competitive immunoassays. The assay was performed on the HEK-293 cell line stably transfected with r5-HT7 receptor. Cells were pre-incubated with test compounds for 10 minutes. For antagonist testing, the cells were then challenged with 100 nM 5-CT for 20 minutes. Cells were then lysed and cAMP measured according to manufacturers protocol (Amersham, cat. NET791250UC) or [^3H]mesulergine (Amersham, cat. TRK1041). The assay was performed on membranes prepared from HEK-293 cells stably transfected with h5-HT6. Following centrifugation, membranes were resuspended and incubated for 60 min at room temperature with 1.7 nM [^3H]LSD in the presence of increasing concentration of test compounds. Nonspecific binding was defined in the presence of 10 μM clozapine (Tocris, cat. TRK1068). Homogenized HEK-293 membranes expressing the human SERT were incubated in 50 mM Tris-HCl (pH 7.5), 120 mM NaCl, 5 mM KCl with [^3H]-citalopram (3 nM) with or without test compounds. Nonspecific binding was determined in the presence of 10 μM fluoxetine. Radioactivity readouts and Ki values were performed as previously described for r5-HT7. […] Compounds were assayed in their free form or as salts, as indicated in the Examples section above.

rat 5-HT7 receptor = rat 5-HT7 receptor (Rattus norvegicus (Rat), UniProt P32305); assay: r5-HT7 binding assay, competitive radioligand binding with [3H]5-CT
Procedure, shortened: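 Competition against [3H]5-CT on rat 5-HT7 HEK-293 membranes; Ki from radioactivity. Functional: 10 min compound, 100 nM 5-CT for 20 min, cAMP immunoassay after lysis.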

[1] = rat 5-HT7 receptor, HEK-293 membranes

human SERT, sequence (P31645 whole entry): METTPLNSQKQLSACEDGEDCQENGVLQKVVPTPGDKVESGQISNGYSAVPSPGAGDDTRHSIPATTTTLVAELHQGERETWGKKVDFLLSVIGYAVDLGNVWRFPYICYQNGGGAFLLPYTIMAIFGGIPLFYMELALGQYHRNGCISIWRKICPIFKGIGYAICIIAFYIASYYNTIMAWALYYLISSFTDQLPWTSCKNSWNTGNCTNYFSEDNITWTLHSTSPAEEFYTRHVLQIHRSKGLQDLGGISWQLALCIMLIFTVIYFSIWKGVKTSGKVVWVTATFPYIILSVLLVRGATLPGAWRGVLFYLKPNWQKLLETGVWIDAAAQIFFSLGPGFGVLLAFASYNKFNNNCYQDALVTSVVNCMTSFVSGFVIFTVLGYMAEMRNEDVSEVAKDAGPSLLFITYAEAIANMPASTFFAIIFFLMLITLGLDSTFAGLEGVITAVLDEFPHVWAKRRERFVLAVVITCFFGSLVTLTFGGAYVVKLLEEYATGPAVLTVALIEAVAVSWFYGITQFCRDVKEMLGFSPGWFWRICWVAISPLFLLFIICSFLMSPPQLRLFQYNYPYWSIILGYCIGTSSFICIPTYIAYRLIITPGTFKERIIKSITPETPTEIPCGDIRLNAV
r5-HT7 receptor, sequence (P32305 1-435): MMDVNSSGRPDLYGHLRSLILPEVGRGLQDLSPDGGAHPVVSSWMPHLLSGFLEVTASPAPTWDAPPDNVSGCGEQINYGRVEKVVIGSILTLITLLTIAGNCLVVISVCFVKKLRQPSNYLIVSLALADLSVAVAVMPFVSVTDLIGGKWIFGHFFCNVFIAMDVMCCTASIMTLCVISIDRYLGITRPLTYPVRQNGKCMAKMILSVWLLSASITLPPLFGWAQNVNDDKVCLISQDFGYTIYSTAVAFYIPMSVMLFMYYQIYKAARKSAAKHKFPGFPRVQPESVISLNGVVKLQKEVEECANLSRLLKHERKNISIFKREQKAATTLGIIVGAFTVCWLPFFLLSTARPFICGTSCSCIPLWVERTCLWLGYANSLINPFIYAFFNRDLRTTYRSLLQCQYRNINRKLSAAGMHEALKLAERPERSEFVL
rat 5-HT7 receptor, sequence (P32305 1-435): as above

| SMILES | Ki (human SERT) [nM] | Kb (r5-HT7 receptor) [nM] | Ki (rat 5-HT7 receptor; [1]) [nM] | Ki (rat 5-HT7 receptor; rat 5-HT7, HEK-293 membranes) [nM] |
| --- | --- | --- | --- | --- |
| Clc1ccc2c(c1)CCC2Oc1ccc(Br)cc1OC1CNC1 (racemic) [Example 152, (±)-3-[5-Bromo-2-(5-chloro-indan-1-yloxy)-phenoxy]-azetidine] | 25 | 39.8 | 19 |  |
| Clc1ccc(OCc2ccc(Cl)c(Cl)c2)c(OC2CNC2)c1 [Example 50, 3-[5-Chloro-2-(3,4-dichloro-benzyloxy)-phenoxy]-azetidine] | 5 | 31.6 | 10 |  |
| COc1ccc(COc2ccc(Br)cc2OC2CNC2)cc1Cl [Example 13, 3-[5-Bromo-2-(3-chloro-4-methoxy-benzyloxy)-phenoxy]-azetidine] | 6 | 3.98 | 4 |  |
| Fc1ccc2c(c1)C(Oc1ccc(Cl)cc1OC1CNC1)CC2 (racemic) [Example 150, (±)-3-[5-Chloro-2-(6-fluoro-indan-1-yloxy)-phenoxy]-azetidine] | 13 | 10 | 10 |  |
| FC(F)(F)c1cccc(COc2ccc(Br)cc2OC2CNC2)c1 [Example 8, 3-[5-Bromo-2-(3-trifluoromethyl-benzyloxy)-phenoxy]-azetidine] | 4 | 7.94 | 6 |  |
| Fc1ccc2c(c1)CCC2Oc1ccc(Br)cc1OC1CNC1 (racemic) [Example 154, (±)-3-[5-Bromo-2-(5-fluoro-indan-1-yloxy)-phenoxy]-azetidine] | 13 | 20 | 18 |  |
| Brc1ccc(OCc2ccccc2)c(OC2CNC2)c1 [Example 1, 3-(2-Benzyloxy-5-bromo-phenoxy)-azetidine] | 48 | 12.6 | 9 |  |
| Fc1ccc(COc2ccc(Cl)cc2OC2CNC2)cc1 [Example 25, 3-[5-Chloro-2-(4-fluoro-benzyloxy)-phenoxy]-azetidine hydrochloride] | 19 | 39.8 | 18 |  |
| COc1cccc(COc2ccc(Cl)cc2OC2CNC2)c1 [Example 33, 3-[5-Chloro-2-(3-methoxy-benzyloxy)-phenoxy]-azetidine] | 8 | 15.8 | 7 |  |
| Clc1ccc(OC2CCCc3ccccc32)c(OC2CNC2)c1 (stereo not drawn) [Example 161, 3-[5-Chloro-2-(1,2,3,4-tetrahydro-naphthalen-1-yloxy)-phenoxy]-azetidine] | 60 | 15.8 | 28 |  |
| ON=C(COc1ccc(Cl)cc1OC1CNC1)c1ccccc1 [Example 181, 2-[2-(Azetidin-3-yloxy)-4-chloro-phenoxy]-1-phenyl-ethanone oxime] | 967 | 20 | 19 |  |
| Fc1ccc(COc2ccc(Br)cc2OC2CNC2)cc1Cl [Example 12, 3-[5-Bromo-2-(3-chloro-4-fluoro-benzyloxy)-phenoxy]-azetidine] | 6 | 3.16 | 11 |  |
| Clc1ccc(OCc2ccccc2)c(OC2CNC2)c1 [Example 40, 3-(2-Benzyloxy-5-chloro-phenoxy)-azetidine] | 43 | 39.8 | 9 |  |
| CCN1CC(Oc2cc(Br)ccc2OCc2cccc(F)c2)C1 [Example 18, 3-[5-Bromo-2-(3-fluoro-benzyloxy)-phenoxy]-1-ethyl-azetidine] | 435 | 1.58 | 5 |  |
| Clc1ccc(COc2ccc(Br)cc2OC2CNC2)cc1 [Example 14, 3-[5-Bromo-2-(4-chloro-benzyloxy)-phenoxy]-azetidine trifluoroacetate] | 52 | 158 | 12 |  |
| CCN1CC(Oc2cc(Br)ccc2OCc2cccc(Cl)c2)C1 [Example 6, 3-[5-Bromo-2-(3-chloro-benzyloxy)-phenoxy]-1-ethyl-azetidine] | 249 | 3.98 | 6 |  |
| CCCN1CC(Oc2cc(Br)ccc2OCc2cccc(F)c2)C1 [Example 19, 3-[5-Bromo-2-(3-fluoro-benzyloxy)-phenoxy]-1-propyl-azetidine] | 396 | 2 | 4 |  |
| FC(F)(F)Oc1cccc(COc2ccc(Br)cc2OC2CNC2)c1 [Example 7, 3-[5-Bromo-2-(3-trifluoromethoxy-benzyloxy)-phenoxy]-azetidine] | 23 | 63.1 | 10 |  |
| CC(C)N1CC(Oc2cc(Br)ccc2OCc2cccc(Cl)c2)C1 [Example 5, 3-[5-Bromo-2-(3-chloro-benzyloxy)-phenoxy]-1-isopropyl-azetidine] | 194 | 5.01 | 8 |  |
| FC(F)(F)c1cc(COc2ccc(Cl)cc2OC2CNC2)ccc1Cl [Example 49, 3-[5-Chloro-2-(4-chloro-3-trifluoromethyl-benzyloxy)-phenoxy]-azetidine] | 40 | 25.1 | 13 |  |
| CC(Oc1ccc(Cl)cc1OC1CNC1)c1cccc(Cl)c1 (racemic) [Example 114, (±)-3-[5-Chloro-2-[1-(3-chloro-phenyl)-ethoxly]-phenoxy]-azetidine] | 75 | 31.6 | 14 |  |
| O=C(c1ccc2ccccc2c1)c1ccc(Br)cc1OC1CNC1 [Example 287, [2-(Azetidin-3-yloxy)-4-bromo-phenyl]-naphthalen-2-yl-methanone] | 14 | 63.1 |  | 15 |
| O=C(c1ccc2c(c1)OCO2)c1ccc(Br)cc1OC1CNC1 [Example 289, [2-(Azetidin-3-yloxy)-4-bromo-phenyl]-benzo[1,3]dioxol-5-yl-methanone] | 437 | 39.8 |  | 34 |
| N#Cc1cccc(COc2ccc(Br)cc2OC2CNC2)c1 [Example 9, 3-[2-(Azetidin-3-yloxy)-4-bromo-phenoxymethyl]-benzonitrile] | 2 | 20 | 11 |  |
| Clc1cccc(COc2ccc(Br)cc2OC2CN(C3CCC3)C2)c1 [Example 3, 3-[5-Bromo-2-(3-chloro-benzyloxy)-phenoxy]-1-cyclobutyl-azetidine] | 381 | 2.51 | 18 |  |
| Clc1ccc(OCc2ccccc2Cl)c(OC2CNC2)c1 [Example 35, 3-[5-Chloro-2-(2-chloro-benzyloxy)-phenoxy]-azetidine trifluroacetate] | 3 | 1000 | 23 |  |
| CN1CC(Oc2cc(F)ccc2OCc2cccc(Cl)c2)C1 [Example 203, 3-[2-(3-Chloro-benzyloxy)-5-fluoro-phenoxy]-1-methyl-azetidine] | 271 | 20 | 24 |  |
| Clc1ccc(OC2Cc3ccccc3C2)c(OC2CNC2)c1 [Example 173, 3-[5-Chloro-2-(indan-2-yloxy)-phenoxy]-azetidine] | 56 | 7.94 | 7 |  |
| N#Cc1cccc(COc2ccc(Cl)cc2OC2CNC2)c1 [Example 34, 3-[2-(Azetidin-3-yloxy)-4-chloro-phenoxymethyl]-benzonitrile] | 1 | 39.8 | 29 |  |
